Assay results published in paper PMC6270271, “Accidental Interaction between PDZ Domains and Diclofenac Revealed by NMR-Assisted Virtual Screening” (Molecules, 2013).

How the values were obtained:
mouse ZO-1 (mZO1-PDZ1) [1] = biological target: T1, mouse ZO-1 (mZO1-PDZ1) (Mus musculus, UniProt P39447); test: 1H-15N SOFAST-HMQC NMR titration; V92E-R96Q mutant abolishes binding
T1 construct: gene Tjp1
T1 sequence (P39447 18-110): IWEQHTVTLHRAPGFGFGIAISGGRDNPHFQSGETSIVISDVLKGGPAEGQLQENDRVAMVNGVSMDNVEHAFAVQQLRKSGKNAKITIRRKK

RHPN2 (RHPN2_PDZ, PDZ7) = biological target: T2, RHPN2 (RHPN2_PDZ, PDZ7) (Homo sapiens, UniProt Q8IUC4); test: 1H-15N SOFAST-HMQC NMR titration; assay type: binding
T2 construct: PDZ domain, 99 residues
T2 sequence (Q8IUC4 515-593 limits assumed): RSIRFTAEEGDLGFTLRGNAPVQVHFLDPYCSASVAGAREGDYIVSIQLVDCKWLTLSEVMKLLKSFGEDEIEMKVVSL
Source text: 1H-15N SOFAST-HMQC NMR titration on RHPN2 (RHPN2_PDZ, PDZ7) | PDZ7|−|++|++|−|−|−|−|+|−|−

[2] = biological target: T3, Harmonin (Harmonin_PDZ2, PDZ8) (Homo sapiens, UniProt Q9Y6N9); test: 1H-15N SOFAST-HMQC NMR titration; assay type: binding
T3 construct: gene USH1C; PDZ2 domain, 100 residues
T3 sequence (Q9Y6N9 201-300 limits assumed): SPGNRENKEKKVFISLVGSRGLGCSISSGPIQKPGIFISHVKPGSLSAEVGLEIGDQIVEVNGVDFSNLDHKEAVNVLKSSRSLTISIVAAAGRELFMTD
Source text: 1H-15N SOFAST-HMQC NMR titration on Harmonin (Harmonin_PDZ2, PDZ8) | PDZ8|−|+|−|−|−|−|−|++|−|−

[3] = biological target: T4, InaDL (InaDL_PDZ6, PDZ13) (Homo sapiens, UniProt Q8NI35); test: 1H-15N SOFAST-HMQC NMR titration; assay type: binding
T4 construct: gene PATJ; PDZ6 domain, 113 residues
T4 sequence (Q8NI35 1058-1170 limits assumed): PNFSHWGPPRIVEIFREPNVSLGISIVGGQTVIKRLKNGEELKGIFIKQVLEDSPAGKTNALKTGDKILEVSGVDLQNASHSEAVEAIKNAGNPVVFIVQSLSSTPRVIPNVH

mouse ZO-1 (mZO1-PDZ1) [4] = biological target: T1, mouse ZO-1 (mZO1-PDZ1); test: 1H-15N SOFAST-HMQC NMR titration; assay type: binding

SMILES	Kd (mouse ZO-1 (mZO1-PDZ1) [1]) [µM]	1H-15N SOFAST-HMQC NMR titration (RHPN2 (RHPN2_PDZ, PDZ7))	1H-15N SOFAST-HMQC NMR titration [2]	1H-15N SOFAST-HMQC NMR titration [3]	Kd (mouse ZO-1 (mZO1-PDZ1) [4]) [µM]
O=C(O)Cc1ccccc1Nc1c(Cl)cccc1Cl [DIF, 2-[(2,6-dichlorophenyl)amino] benzene-acetic acid]	1400	PDZ7|−|++|++|−|−|−|−|+|−|−	PDZ8|−|+|−|−|−|−|−|++|−|−	PDZ13|n. e.|++|+|−|−|−|−|++|−|−	
O=C(O)c1ccccc1Nc1cccc(C(F)(F)F)c1 [FLF, 2-[[3-(trifluoro-methyl)phenyl]amino] benzoic acid]		PDZ7|−|++|++|−|−|−|−|+|−|−	PDZ8|−|+|−|−|−|−|−|++|−|−	PDZ13|n. e.|++|+|−|−|−|−|++|−|−	750
CC(=O)O[C@H]1C[C@@]2(C)[C@@H](C[C@@H](O)[C@H]3[C@@]4(C)CC[C@@H](O)[C@@H](C)[C@@H]4CC[C@@]32C)/C1=C(\CCC=C(C)C)C(=O)O [FUA, fusidic acid]		PDZ7|−|++|++|−|−|−|−|+|−|−			
